Publication PMC4026281 (Journal of neurochemistry, 2012)
“And” between values parts separate entries of the source, which are not always exact repeats. Equal values may be shown once. “Also recorded” adds a separate entry of the source.

Legend:
[1] = test system: nAChRs on SuSC GABAergic terminals (crude synaptosomes); assay type: biochemical, mouse
[2] = test system: nAChRs, SuSC crude synaptosomes of nAChR subunit null mutant mice; assay type: biochemical, mouse
nAChRs in SuSC membranes = assay type: binding, mouse (C57BL/6)
[3] = test system: nAChRs in SC core membranes; assay type: binding, mouse (C57BL/6)
nAChR, SuSC = conditions: rat, in vivo; cited from earlier work
α4β2* nAChR = conditions: cited from earlier work
SuSC crude synaptosomes = assay type: biochemical, mouse; conditions: n = 5
rat α3β2 receptors = conditions: cited from earlier work
[4] = molecular target: α-CtxMII-sensitive nAChR, SuSC crude synaptosomes (Mus musculus, UniProt Q8R4G9+Q9ERK7); assay type: biochemical
α-CtxMII-sensitive nAChR, SuSC crude synaptosomes, sequence (Q8R4G9 whole entry, looked up): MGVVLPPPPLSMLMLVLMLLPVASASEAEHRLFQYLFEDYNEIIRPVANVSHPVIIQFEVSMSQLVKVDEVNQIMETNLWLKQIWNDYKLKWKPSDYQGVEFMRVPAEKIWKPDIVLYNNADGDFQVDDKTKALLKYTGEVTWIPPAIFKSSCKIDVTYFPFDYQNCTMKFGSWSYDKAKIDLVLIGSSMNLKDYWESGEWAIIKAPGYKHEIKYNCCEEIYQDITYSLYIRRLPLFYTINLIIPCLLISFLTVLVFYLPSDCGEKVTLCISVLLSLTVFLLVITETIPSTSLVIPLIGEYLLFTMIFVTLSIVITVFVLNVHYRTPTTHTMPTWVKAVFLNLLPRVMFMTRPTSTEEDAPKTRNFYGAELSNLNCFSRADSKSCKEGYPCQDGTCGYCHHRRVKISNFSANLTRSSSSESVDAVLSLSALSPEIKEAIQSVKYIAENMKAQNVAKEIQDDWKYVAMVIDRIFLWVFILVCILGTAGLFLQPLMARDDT
α-CtxMII-sensitive nAChR, SuSC crude synaptosomes, sequence (Q9ERK7 whole entry, looked up): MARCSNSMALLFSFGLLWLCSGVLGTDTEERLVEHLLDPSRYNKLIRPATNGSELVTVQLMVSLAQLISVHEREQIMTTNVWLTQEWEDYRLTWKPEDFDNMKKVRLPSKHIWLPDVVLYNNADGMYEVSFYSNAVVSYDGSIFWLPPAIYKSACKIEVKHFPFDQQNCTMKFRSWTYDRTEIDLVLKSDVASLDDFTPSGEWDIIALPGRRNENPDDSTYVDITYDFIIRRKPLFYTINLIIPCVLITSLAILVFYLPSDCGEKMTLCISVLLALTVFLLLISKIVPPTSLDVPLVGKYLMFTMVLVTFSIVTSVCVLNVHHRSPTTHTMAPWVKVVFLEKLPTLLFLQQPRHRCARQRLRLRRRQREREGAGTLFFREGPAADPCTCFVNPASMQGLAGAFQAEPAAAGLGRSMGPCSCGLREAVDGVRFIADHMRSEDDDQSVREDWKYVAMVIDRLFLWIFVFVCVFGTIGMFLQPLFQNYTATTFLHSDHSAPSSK

[5] = test system: α-CtxMII-sensitive nAChR, striatum; conditions: cited from earlier work
α6β2* and α3β2* nAChR = conditions: cited from earlier work
[6] = test system: α6β2*-nAChR, crude striatal synaptosomes; assay type: biochemical, mouse

CC(=O)OCC[N+](C)(C)C [ACh, Acetylcholine]
loss of ACh-evoked [^3H]-GABA release in the absence of external calcium [1]: 94 ± 3%
maximal ACh-stimulated [^3H]-GABA release, α-CtxMII-resistant component [1]: 1.00 ± 0.20 × baseline
maximal ACh-stimulated [^3H]-GABA release, α-CtxMII-sensitive component [1]: 0.71 ± 0.08 × baseline
maximal [^3H]-GABA release, high sensitivity component [1]: 0.68 ± 0.19
maximal [^3H]-GABA release, low sensitivity component [1]: 1.47 ± 0.21
share of ACh-elicited [^3H]-GABA release due to α4β2*-type receptor [1]: ~65%
ACh-stimulated [^3H]-GABA release in β2^-/- mice [2]: entirely β2 subunit-dependent; also recorded: completely absent
ACh-stimulated [^3H]-GABA release remaining in α4^-/- mice, of WT activity [2]: 9.7 ± 1.1 % of WT activity remaining
decrease of total function by α4 subunit deletion [2]: > 90%

N#Cc1cc2c(cc1[N+](=O)[O-])=NC(=O)C(=O)N=2 [CNQX, 6-Cyano-7-nitroquinoxaline-2,3-dione]
effect of CNQX on ACh-stimulated [^3H]-GABA release ([1]; 100 μM, 5 min, n=4): no effect

CN1[C@@H]2CC[C@H]1C[C@@H](OC(=O)c1cc(Cl)cc(Cl)c1)C2 [MDL-72222, Tropanyl 3,5-dichlorobenzoate]
effect of MDL-72222 on ACh-stimulated [^3H]-GABA release ([1]; 1 μM, 5 min, n=5): no effect

C[C@]12N[C@H](Cc3ccccc31)c1ccccc12 [MK-801, (5S,10R)-(+)-5-Methyl-10,11-dihydro-5H-dibenzo[a,d]cyclohepten-5,10-imine]
effect of MK-801 on ACh-stimulated [^3H]-GABA release ([1]; 200 μM, 5 min, n=4): no effect

CNC1(C)C2CCC(C2)C1(C)C (stereo not shown) [Mecamylamine, mecamylamine]
effect on ACh-evoked [^3H]-GABA release (abstract) [1]: blocked
effect of mecamylamine on ACh-stimulated [^3H]-GABA release ([1]; 10 μM, 1 min, n=3): completely eliminated ACh-stimulated release of [^3H]-GABA

Nc1ncnc2c1ncn2[C@@H]1O[C@H](COP(=O)(O)OP(=O)(O)OP(=O)(O)O)[C@H]2OC3(O[C@H]21)C([N+](=O)[O-])=CC(=[N+]([O-])[O-])C=C3[N+](=O)[O-] (stereo partly shown) [TNP-ATP]
effect of TNP-ATP on ACh-stimulated [^3H]-GABA release ([1]; 10 μM, 4 min, n=3): no effect

[125I]c1ccc(C2CC3CCC2N3)cn1 (stereo not shown) [[^125I]-epibatidine]
Bmax, specific [^125I]epibatidine binding (nAChRs in SuSC membranes): 100 ± 2 fmol/mg
Bmax, [^125I]-epibatidine binding [3]: 56 ± 2 fmol/mg

CN1[C@@H]2CC[C@H]1C[C@@H](OC(=O)C(CO)c1ccccc1)C2 (stereo partly shown) [atropine]
effect of atropine on ACh-stimulated [^3H]-GABA release [1]: no effect

[Cd] [cadmium]
block of ACh-stimulated [^3H]-GABA release by cadmium [1]: 94 ± 1%
effect on ACh-evoked [^3H]-GABA release (abstract) [1]: blocked

CN1[C@@H](CC(=O)c2ccccc2)CCC[C@H]1C[C@H](O)c1ccccc1 [lobeline]
visual responses originating in the SuSC (nAChR, SuSC): reduced

CN1CCC[C@H]1c1cccnc1 [nicotine]
binding to α4β2* nAChR (α4β2* nAChR): binds nicotine and other agonists with high affinity

α-conotoxin MII [α-CtxMII]
K^+-evoked [^3H]-GABA release in the presence of α-CtxMII (SuSC crude synaptosomes): 14.1 ± 2.7
t1/2 of recovery from α-CtxMII inhibition, rat α3β2 receptors (rat α3β2 receptors): approximately 4 minutes
time by which full recovery was observed, rat α3β2 receptors (rat α3β2 receptors): ≤ 26 min
lag period during which no recovery was observed [4]: approximately 5 min
functional recovery of ACh-evoked [^3H]-GABA release, of control ([4]; n = 3-4): 91 ± 18%
t1/2 for recovery from α-CtxMII inhibition ([4]; n = 3-4): 5.2 min and ~5 min
t1/2 of recovery from α-CtxMII inhibition, [^3H]-DA release [5]: ~26 min
affinity for α6β2* and α3β2* nAChR subtypes (α6β2* and α3β2* nAChR): high affinity
subtypes inhibited by the α-conotoxin (α6β2* and α3β2* nAChR): inhibits both α3β2*- and α6β2*-nAChR
specific [^125I]epibatidine binding sensitive to inhibition by α-CtxMII (nAChRs in SuSC membranes; 0.0002 µM): 40 +/- 5% and 40.2 ± 5.2%
IC50 (nAChRs in SuSC membranes; read-out: IC50 for the α-CtxMII-resistant sites): > 1000 nM
inhibition of ACh-stimulated [^3H]-dopamine release [6]: 41.2 ± 2.8%
concentration at which maximal inhibition of [^3H]-GABA release was achieved [1]: 30 nM
effect of 100nM α-CtxMII on response to ACh [1]: reduced the response seen by stimulation with ACh, but did not eliminate it
nAChR-mediated SuSC [^3H]-GABA release inhibited by α-conotoxinMII (abstract) [1]: Approximately 50%
α-CtxMII sensitive fraction of total [^3H]-GABA release [1]: 58 ± 7%
IC50 ([1]; read-out: IC50, inhibition of ACh-stimulated [^3H]-GABA release): 1.05 nM
α-CtxMII sensitive [^3H]-GABA release after β3 subunit gene deletion [2]: unaffected
α-CtxMII-sensitive [^3H]-GABA release after deletion of the α6 subunit [2]: no appreciable impact
[^3H]-GABA release in α6-null mutant mice ([2]; n = 4): indistinguishable from the same measures in wild-type mice
inhibition of [^125I]-epibatidine binding [3]: not inhibited by α-CtxMII at concentrations below 1 μM
